The assay concerns the target T1, human kappa-opioid receptor (KOR) (Homo sapiens, UniProt P41145).
T1 construct: gene OPRK1
As to the kind of experiment: [3H]U69, […] radioligand competition binding, CHO-hKOR membranes; […]GTPγS antagonism (Ke […]). In general terms: In a radioligand displacement assay an active substance lowers the binding of a labelled ligand.

In general, Ki refers to the dissociation constant of the complex between target and ligand, obtained from inhibition or displacement.

The structures appear in SMILES notation.

With `Cc1c(NC(=O)c2ccc(Cl)cc2)cc(-c2ccccc2)n1CCCN1CCOCC1` [Compound A], the affinity, expressed as Ki, was 1.35 ± 0.32 µM.

The record behind these values is PMC9229160 (Pharmaceuticals, 2022).
